Reference: the NIST ThermoML archive (doi:10.1021/je060271a)
Several values for one entry are separate records, joined by “and”; a condition that tells them apart may be missing. Equal entries are not always repeated.

Details: 283.15 K, Liquid, Vibrating tube method

CCCCCC(=O)OCC(COC(=O)CCCCC)(COC(=O)CCCCC)COC(=O)CCCCC [pentaerythritol tetrahexanoate]
Details | mass density
147.5 kPa | 1004.2 kg/m3
147.8 kPa | 1004.2 kg/m3
148.2 kPa | 1004.2 kg/m3
148.7 kPa | 1004.3 kg/m3
150.5 kPa | 1004.1 kg/m3
150.8 kPa | 1004.2 kg/m3
151.3 kPa | 1004.3 kg/m3
151.5 kPa | 1004.3 kg/m3
151.7 kPa | 1004.3 kg/m3
152.4 kPa | 1004.2 kg/m3
152.7 kPa | 1004.2 kg/m3
153.2 kPa | 1004.2 kg/m3
153.4 kPa | 1004.2 kg/m3
153.7 kPa | 1004.4 kg/m3
154.1 kPa | 1004.3 kg/m3
154.3 kPa | 1004.2 kg/m3
154.6 kPa | 1004.1 kg/m3 and 1004.2 kg/m3
155.1 kPa | 1004.3 kg/m3
155.7 kPa | 1004.2 kg/m3
156.4 kPa | 1004.2 kg/m3
156.5 kPa | 1004.1 kg/m3 and 1004.2 kg/m3
157.2 kPa | 1004.3 kg/m3
157.6 kPa | 1004.2 kg/m3
157.7 kPa | 1004.2 kg/m3
157.9 kPa | 1004.3 kg/m3
160.5 kPa | 1004.2 kg/m3
161 kPa | 1004.2 kg/m3
161.4 kPa | 1004.2 kg/m3
161.6 kPa | 1004.3 kg/m3
162.3 kPa | 1004.3 kg/m3
162.4 kPa | 1004.1 kg/m3
163 kPa | 1004.2 kg/m3
163.1 kPa | 1004.3 kg/m3
163.8 kPa | 1004.3 kg/m3
164.2 kPa | 1004.3 kg/m3
164.5 kPa | 1004.2 kg/m3
164.7 kPa | 1004.3 kg/m3
165.2 kPa | 1004.2 kg/m3
165.7 kPa | 1004.3 kg/m3
166.4 kPa | 1004.1 kg/m3
166.8 kPa | 1004.3 kg/m3
166.9 kPa | 1004.3 kg/m3
167.5 kPa | 1004.2 kg/m3
168.2 kPa | 1004.2 kg/m3
169.7 kPa | 1004.2 kg/m3
173.5 kPa | 1004.2 kg/m3
174.1 kPa | 1004.2 kg/m3
174.8 kPa | 1004.1 kg/m3
175.1 kPa | 1004.3 kg/m3
175.4 kPa | 1004.2 kg/m3
177 kPa | 1004.2 kg/m3
177.9 kPa | 1004.2 kg/m3
178 kPa | 1004.2 kg/m3
178.4 kPa | 1004.1 kg/m3
178.9 kPa | 1004.2 kg/m3
179.4 kPa | 1004.2 kg/m3
179.6 kPa | 1004.2 kg/m3
179.8 kPa | 1004.2 kg/m3
180.3 kPa | 1004.3 kg/m3
181 kPa | 1004.2 kg/m3
181.4 kPa | 1004.2 kg/m3
181.9 kPa | 1004.3 kg/m3
182.2 kPa | 1004.2 kg/m3
182.9 kPa | 1004.3 kg/m3
184.1 kPa | 1004.3 kg/m3
185 kPa | 1004.3 kg/m3
185.3 kPa | 1004.2 kg/m3
185.7 kPa | 1004.2 kg/m3
186 kPa | 1004.3 kg/m3
186.4 kPa | 1004.2 kg/m3
187.1 kPa | 1004.2 kg/m3
187.6 kPa | 1004.3 kg/m3
188.3 kPa | 1004.3 kg/m3
188.6 kPa | 1004.2 kg/m3
188.8 kPa | 1004.1 kg/m3
189.2 kPa | 1004.2 kg/m3
189.5 kPa | 1004.3 kg/m3
189.9 kPa | 1004.3 kg/m3
190.2 kPa | 1004.1 kg/m3
190.5 kPa | 1004.3 kg/m3
190.7 kPa | 1004.2 kg/m3
191.4 kPa | 1004.2 kg/m3
191.9 kPa | 1004.3 kg/m3
192.3 kPa | 1004.3 kg/m3 and 1004.2 kg/m3
192.6 kPa | 1004.4 kg/m3
192.8 kPa | 1004.2 kg/m3
193.1 kPa | 1004.2 kg/m3
193.3 kPa | 1004.2 kg/m3
193.8 kPa | 1004.2 kg/m3
194.4 kPa | 1004.2 kg/m3
194.7 kPa | 1004.3 kg/m3
195.1 kPa | 1004.3 kg/m3
195.2 kPa | 1004.2 kg/m3
195.8 kPa | 1004.2 kg/m3
195.9 kPa | 1004.2 kg/m3
196.3 kPa | 1004.3 kg/m3
196.8 kPa | 1004.3 kg/m3
197.1 kPa | 1004.2 kg/m3
197.3 kPa | 1004.2 kg/m3
197.5 kPa | 1004.1 kg/m3
197.8 kPa | 1004.3 kg/m3
198.2 kPa | 1004.2 kg/m3
198.7 kPa | 1004.3 kg/m3
198.9 kPa | 1004.3 kg/m3
199.2 kPa | 1004.2 kg/m3
199.6 kPa | 1004.4 kg/m3
200.3 kPa | 1004.3 kg/m3
200.8 kPa | 1004.1 kg/m3 and 1004.3 kg/m3
201 kPa | 1004.2 kg/m3
201.5 kPa | 1004.1 kg/m3
202 kPa | 1004.3 kg/m3
202.2 kPa | 1004.4 kg/m3
202.5 kPa | 1004.2 kg/m3
202.7 kPa | 1004.1 kg/m3
203.2 kPa | 1004.3 kg/m3
204.1 kPa | 1004.1 kg/m3
204.3 kPa | 1004.2 kg/m3
204.6 kPa | 1004.2 kg/m3
205.1 kPa | 1004.2 kg/m3
205.7 kPa | 1004.2 kg/m3
205.8 kPa | 1004.2 kg/m3
206.5 kPa | 1004.3 kg/m3 and 1004.2 kg/m3
207 kPa | 1004.1 kg/m3
208.6 kPa | 1004.2 kg/m3
208.8 kPa | 1004.3 kg/m3
209.3 kPa | 1004.2 kg/m3
209.6 kPa | 1004.2 kg/m3
210 kPa | 1004.2 kg/m3
210.5 kPa | 1004.3 kg/m3
211 kPa | 1004.2 kg/m3
211.6 kPa | 1004.3 kg/m3
212.1 kPa | 1004.2 kg/m3
212.4 kPa | 1004.3 kg/m3
212.8 kPa | 1004.3 kg/m3
212.9 kPa | 1004.2 kg/m3
213.5 kPa | 1004.3 kg/m3
213.8 kPa | 1004.2 kg/m3
214.5 kPa | 1004.3 kg/m3
215.2 kPa | 1004.3 kg/m3
215.7 kPa | 1004.2 kg/m3
216.2 kPa | 1004.3 kg/m3
216.8 kPa | 1004.2 kg/m3
217.5 kPa | 1004.2 kg/m3
219 kPa | 1004.1 kg/m3
219.4 kPa | 1004.3 kg/m3
